Assay [1] relates to Botrytis cinerea. As to the kind of experiment: Botrytis cinerea (gray mold) mycelial radial growth on potato dextrose agar. The format is cell-based. To be noted: 168 h, 22° C., seven days, read-out: control compared to the untreated check. As to the method:
The compounds were dissolved in 0.3% dimethyl sulfoxide and then added to potato dextrose agar medium just prior to dispensing it into petri dishes. 5 mL medium, with the compound in the desired concentration, was dispensed into 60 mm sterile petri-plates. After solidification, each plate was seeded with a 5 mm size mycelial disc taken from the periphery of an actively growing virulent culture plate. The plates were incubated in growth chambers at 22° C. temperature and 90% relative humidity for seven days and the radial growth was measured and compared to the one of the untreated control.

Assay [2] deals with Parastagonospora nodorum. As to the kind of experiment: Parastagonospora nodorum (PARANO) spore growth inhibition in liquid medium, 96-well microtiter plate, OD 600. The format is cell-based. The conditions noted are these: spore suspension in PDB liquid medium, 18° C., 5-6 days, OD at 600, read-out: control compared to the untreated check. In outline: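 Read-out is percent growth inhibition from OD at 600 after 5-6 days at 18° C. Compounds, dissolved in DMSO, were diluted in potato dextrose broth and combined in equal volume with a 10^5 spores/ml suspension of PARANO.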

The test system of assay [3] is Botrytis cinerea. As to the kind of experiment: Botrytis cinerea liq. (BOTRCI) spore growth inhibition in liquid medium, 96-well microtiter plate, OD 405 nm. The conditions noted are these: spore suspension in YBA liquid medium, 22° C., 5-6 days, OD at 405 nm, read-out: control compared to the untreated check. The class given is cell-based. As to the method: Yeast bacterial peptone and sodium acetate (YBA) liquid medium containing a BOTRCI (10^4 spores/ml) spore suspension was prepared. For the inhibition assay, each test compound was solved in dimethyl sulfoxide. 100 μl of the test compound in media-solution was added to a 96-well microtiter plate, consequently, the same volume (100 μl) of spore suspension was added to the well making the final test concentrations and the plate was incubated at 22° C. for 5-6 days. The growth inhibition was evaluated by measuring the OD at 405 nm. Percent inhibition was calculated with the below formula:
Where T=treatment, C=control, and B=blank

Assay [4] deals with Phytophthora infestans. Briefly: microbe, parasite or virus in culture. The class given is cell-based. To be noted: 168 h, read-out: control compared to the untreated check.
Assay [5] relates to Colletotrichum capsici. Briefly: Colletotrichum capsici (anthracnose) mycelial radial growth on potato dextrose agar. The conditions noted are these: Colletotrichum truncatum, 168 h, 25° C., seven days, read-out: control compared to the untreated check. The format is cell-based. As to the method:
The compounds were dissolved in 0.3% dimethyl sulfoxide and then added to potato dextrose agar medium just prior to dispensing it into petri dishes. 5 mL medium, with the compound in the desired concentration, was dispensed into 60 mm sterile petri-plates. After solidification, each plate was seeded with a 5 mm size mycelial disc taken from the periphery of an actively growing virulent culture plate. The plates were incubated in growth chambers at 25° C. temperature and 60% relative humidity for seven days and the radial growth was measured and compared to the one of the untreated control.

Assay [6] has as its system Pyricularia oryzae. Briefly: microbe, parasite or virus in culture. The class given is cell-based. To be noted: 168 h, read-out: control compared to the untreated check.
Assay [7] concerns Botrytis cinerea. Briefly: Botrytis cinerea test on tomato, preventive, greenhouse. The format is in vivo. To be noted: preventive spray on bean/chili plants (heading: tomato), inoculated one day after treatment, read-out: control (efficacy, disease severity) compared to the untreated check.
Assay [8] deals with Phakopsora pachyrhizi. Briefly: Phakopsora pachyrhizi test on soybean, preventive, greenhouse. The format is in vivo. To be noted: preventive spray on soybean, inoculated one day after treatment, read-out: control (efficacy, disease severity) compared to the untreated check. In outline: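 Preventive protocol: plants inoculated with a 2×10^5 P. pachyrhizi conidial suspension one day after spray application at the stated rate, then incubated at 22-24 °C and 80-90% RH. Compound was applied from 2% DMSO/acetone diluted in emulsified water.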

Molecules are shown by their SMILES.

`Cn1ccc2cc(C(=O)NC3(C)Cc4ccccc4C3)cnc21` [Compound 78, 1-methyl-N-(2-methyl-2,3-dihydro-1H-inden-2-yl)-1H-pyrrolo[2,3-b] pyridine-5-carboxamide]: the inhibition of growth at 300 ppm in assay [1], in assay [2] and in assay [3] was at least 70% in each case.

As for `CC(C)(COc1ccc(C#N)cn1)NC(=O)c1cnc2c(c1)CCC2` [Compound 223, N-(1-((5-cyanopyridin-2-yl)oxy)-2-methylpropan-2-yl)-6,7-dihydro-5H-cyclopenta[b]pyridine-3-carboxamide], the inhibition of growth at 300 ppm in assay [4], in assay [2] and in assay [3] was at least 70% throughout.

With `C=C(C)CC(C)(COc1ccccc1F)NC(=O)c1cnc2cc[nH]c2c1` (stereo not shown) [Compound 175, N-(1-(2-fluorophenoxy)-2,4-dimethylpent-4-en-2-yl)-1H-pyrrolo[3,2-b] pyridine-6-carboxamide], the inhibition of growth at 300 ppm in assay [5], in assay [4] and in assay [2] was at least 70% each time.

Consider `CC(C)(COCc1ccccc1F)NC(=O)c1cnc2ccsc2c1` [Compound 189], for which the inhibition of growth at 300 ppm in assay [6], in assay [1] and in assay [3] was at least 70% throughout.

For the molecule `Cc1cccc(CC(C)(C)NC(=O)c2cnc3c(ccn3C)c2)c1` [Compound 27, 1-methyl-N-(2-methyl-1-(m-tolyl)propan-2-yl)-1H-pyrrolo[2,3-b] pyridine-5-carboxamide], the inhibition of growth at 300 ppm in assay [4] and in assay [2] was at least 70% each time.

Regarding `CC(C)(Cc1ccccc1)NC(=O)c1cnc2cc[nH]c2c1` [Compound 95, N-(2-methyl-1-phenylpropan-2-yl)-1H-pyrrolo[3,2-b] pyridine-6-carboxamide], the inhibition of growth at 300 ppm in assay [4] and in assay [2] was at least 70% each time. The pest or weed control at 500 ppm in assay [7] and in assay [8] was at least 70% each time.

Turning to `Cn1cc(Br)c2cc(C(=O)NC(C)(C)COCc3ccccc3F)cnc21` [Compound 194, 3-bromo-N-(1-((2-fluorobenzyl)oxy)-2-methylpropan-2-yl)-1-methyl-1H-pyrrolo[2,3-b]pyridine-5-carboxamide], the inhibition of growth at 300 ppm in assay [1] and in assay [3] was at least 70% each time.

In the case of `CON(C(=O)c1cc2c(nc1Cl)CCC2)C(C)Cc1ccccc1F` (stereo not shown) [Compound 254, 2-chloro-N-(1-(2-fluorophenyl)propan-2-yl)-N-methoxy-6,7-dihydro-5H-cyclopenta[b]pyridine-3-carboxamide], the inhibition of growth at 300 ppm in assay [6], in assay [1], in assay [2] and in assay [3] was at least 70% each time.

Regarding `Cn1ccc2cc(C(=O)NC(C)(C)COc3ccc(F)cn3)cnc21` [Compound 230, N-(1-((5-fluoropyridin-2-yl)oxy)-2-methylpropan-2-yl)-1-methyl-1H-pyrrolo[2,3-b]pyridine-5-carboxamide], the inhibition of growth at 300 ppm in assay [5], in assay [4], in assay [2] and in assay [3] was at least 70% in each case.

For `COc1nc2c(cc1C(=O)NC(C)CCc1ccccc1)CCC2` (stereo not shown) [Compound 249, 2-methoxy-N-(4-phenylbutan-2-yl)-6,7-dihydro-5H-cyclopenta[b]pyridine-3-carboxamide], the inhibition of growth at 300 ppm in assay [4] and in assay [2] was at least 70% throughout.

`Cc1ccccc1C(=O)OCC(C)(C)NC(=O)c1cnc2c(c1)CCC2` [Compound 149, 2-(6,7-dihydro-5H-cyclopenta[b]pyridine-3-carboxamido)-2-methylpropyl 2-methylbenzoate]: the inhibition of growth at 300 ppm in assay [1], in assay [2] and in assay [3] was at least 70% each time.

As for `CN1CCOc2cc(C(=O)NC(C)(C)Cc3ccccc3)cnc21` [Compound 82, 4-methyl-N-(2-methyl-1-phenylpropan-2-yl)-3,4-dihydro-2H-pyrido[3,2-b] [1,4]oxazine-7-carboxamide], the inhibition of growth at 300 ppm in assay [1], in assay [2] and in assay [3] was at least 70% in each case.

For the molecule `COc1nc2[nH]ccc2cc1C(=O)NC(C)(Cc1ccccc1)CC(C)C` (stereo not shown) [Compound 89, N-(2,4-dimethyl-1-phenylpentan-2-yl)-6-methoxy-1H-pyrrolo[2,3-b]pyridine-5-carboxamide], the inhibition of growth at 300 ppm in assay [1] and in assay [3] was at least 70% each time. Also, the pest or weed control at 500 ppm in assay [8] is at least 70%.

With `O=C(NCC1(c2ccccc2)CC1)c1cc2c(nc1Cl)CCC2` [Compound 248, 2-chloro-N-((1-phenylcyclopropyl)methyl)-6,7-dihydro-5H-cyclopenta[b]pyridine-3-carboxamide], the inhibition of growth at 300 ppm in assay [4] is at least 70%.

Consider `COc1ccccc1CC(C)(C)NC(=O)c1cnc2c(c1)c(F)cn2C` [Compound 72, 3-fluoro-N-(1-(2-methoxyphenyl)-2-methylpropan-2-yl)-1-methyl-1H-pyrrolo[2,3-b]pyridine-5-carboxamide], for which the inhibition of growth at 300 ppm in assay [1] and in assay [3] was at least 70% each time.

For the molecule `Cn1ccc2ncc(C(=O)NC(C)(C)Cc3ccccc3)cc21` [Compound 86, 1-methyl-N-(2-methyl-1-phenylpropan-2-yl)-1H-pyrrolo[3,2-b] pyridine-6-carboxamide], the inhibition of growth at 300 ppm in assay [4] and in assay [2] was at least 70% throughout. Moreover, the pest or weed control at 500 ppm in assay [7] and in assay [8] was at least 70% in each case.

On to `Cn1ccc2cc(C(=O)NC(C)(C)COc3ccnc(Cl)c3)cnc21` [Compound 229, N-(1-((2-chloropyridin-4-yl)oxy)-2-methylpropan-2-yl)-1-methyl-1H-pyrrolo[2,3-b]pyridine-5-carboxamide], for which, in assay [4], the inhibition of growth at 300 ppm is at least 70%.

`COc1cc(C(O)C(C)(C)NC(=O)c2cnc3ccsc3c2)ccc1F` (stereo not shown) [Compound 119, N-(1-(4-fluoro-3-methoxyphenyl)-1-hydroxy-2-methylpropan-2-yl)thieno[3,2-b] pyridine-6-carboxamide]: the inhibition of growth at 300 ppm in assay [6], in assay [4] and in assay [2] was at least 70% each time. Besides, the pest or weed control at 500 ppm in assay [8] is at least 70%.

For the molecule `C=C(C)CC(C)(COc1ccccc1F)NC(=O)c1cnc2ccsc2c1` (stereo not shown) [Compound 159, N-(1-(2-fluorophenoxy)-2,4-dimethylpent-4-en-2-yl)thieno[3,2-b] pyridine-6-carboxamide], the inhibition of growth at 300 ppm in assay [1] and in assay [2] was at least 70% in each case.

`CC(C)(COc1ccccn1)NC(=O)c1cnc2ccsc2c1` [Compound 212, N-(2-methyl-1-(pyridin-2-yloxy)propan-2-yl)thieno[3,2-b] pyridine-6-carboxamide]: the inhibition of growth at 300 ppm in assay [4] was at least 70%.

Regarding `CC(C)(COc1ccccn1)NC(=O)c1cnc2c(c1)CCC2` [Compound 202, N-(2-methyl-1-(pyridin-2-yloxy)propan-2-yl)-6,7-dihydro-5H-cyclopenta[b]pyridine-3-carboxamide], the inhibition of growth at 300 ppm in assay [4] and in assay [3] was at least 70% in each case.

Turning to `CC(C)(COC(=O)c1ccccc1C(F)(F)F)NC(=O)c1cnc2c(c1)CCC2` [Compound 148, 2-(6,7-dihydro-5H-cyclopenta[b]pyridine-3-carboxamido)-2-methylpropyl 2-(trifluoromethyl)benzoate], the inhibition of growth at 300 ppm in assay [1] and in assay [3] was at least 70% each time.

The values above are taken from patent publication US20250049036A1 (priority 2021, published 2025).
